Where two headings read alike, the source gives them in different places.
Experiments:
[1] = target: L-type calcium channel Cav1.2 (Homo sapiens (Human), UniProt Q13936); assay: Patch clamp electrophysiology assay, L-type calcium channel; format: cell-based; details: pH 7.35, HEK293, read-out: Ca % Inhibition
Method: (§1) Compound Electrophysiology Assays
(§2) Recombinant ion channels (hERG, sodium [SCN5A], and L-type calcium [Cav1.2]) stably expressed in human embryonic kidney cells (HEK293) are used as test systems, and each system is tested using 2-3 replicates in the conventional patch clamp assay.
(§3) Ion channel membrane current recordings are made with a Multiclamp 700 series integrating patch-clamp amplifier (Axon Instruments, Foster City, Calif.) using the whole-cell variant of the patch-clamp technique.
Cells expressing hERG, sodium [SCN5A], or L-type calcium [Cav1.2] channels are placed in a plexiglass bath chamber, mounted on the stage of an inverted microscope, and perfused continuously with bath solution. […]
L-type calcium currents are elicited by 200 ms step depolarizations applied from a holding potential of −50 mV to a test potential of +30 mV. The voltage steps are applied in 5 second intervals (0.2 Hz) and the peak inward current is recorded. […] The peak inward current is monitored until a new steady-state in the presence of test article is achieved.
Compounds are tested in 3 cells at each concentration in each ion channel assay. […] All currents were recorded at room temperature ˜25° C. IC50 values are calculated using the sigmoidal concentration-response equation Y=A+((B−A)/(1+((C/X)^D))) in XLfit where A and B are the minimum and maximum % inhibition, C is the IC50 and D is the slope factor. […]

[2] = Compound bioavailability assay in rats; format: in vivo; details: male, Sprague-Dawley, plasma, rat, oral
Method: Compound Bioavailability Assays
Male Sprague-Dawley rats (270-350 g) were used in the pharmokinetic studies. Two (2) groups of animals (N=3 per group) were fasted overnight and one group received test compound as an IV infusion dose (1 mg/kg over 10 minutes) via a jugular vein in PEG-400/propylene glycol/ethanol (50:40:10) or Cremophor-EL/PEG400/water (10:40:50, v/v/v). The other group received test compound by oral gavage (2 or 5 mg/kg) as either nano-suspension in Pluronic F-108/polyvinylpyrrolidinone/water (1:2.5:96.5, v/v/v) or in Methocel A4M/Tween 80/water (0.5:0.1:99.4, v/v/v) as suspension (partical size: d50=0.960 μm; d90=4.4 μm) for oral dosing. […]
Pharmacokinetic parameters were obtained by non-compartmental analysis of plasma concentration vs. time data (KINETICA™ software, Version 5.0, Thermo Fisher Scientific Corporation, Philadelphia, Pa.). The peak concentration (Cmax) and time for Cmax (Tmax) were recorded directly from experimental observations. The area under the curve from time zero to the last sampling time [AUC(0-T)] and the area under the curve from time zero to infinity [AUC(INF)] were calculated using a combination of linear and log trapezoidal summations. […] Estimations of AUC and T-HALF were made using a minimum of 3 timepoints with quantifiable concentrations. […]

sodium channel SCN5A = sodium channel SCN5A (Homo sapiens (Human), UniProt Q14524); assay: Patch clamp electrophysiology assay, sodium channel; format: cell-based; details: pH 7.4, 10 μM, HEK293, read-out: Na % Inhibition
Method: as §1, §2, §3
Cells expressing hERG, sodium [SCN5A], or L-type calcium [Cav1.2] channels are placed in a plexiglass bath chamber, mounted on the stage of an inverted microscope, and perfused continuously with bath solution.
The sodium current bath solution contains (in mM): 70 NaCl, 70 NMDG, 4 KCl, 1.8 CaCl2, 1 MgCl2, 10 glucose, 10 HEPES (pH 7.4, NaOH). The patch pipette filling solution used in sodium experiments contains (in mM): 130 KCl, 1 MgCl2, 1 CaCl2, 5 ATP-K2, 10 EGTA, 10 HEPES (pH 7.2, KOH).
For determining steady state inhibition, sodium currents are elicited every 5 seconds (0.2 Hz) using the following voltage protocol. Cells are held at a potential of −90 mV and stepped to −20 mV for 45 ms. The peak sodium current in response to the depolarizing step to −20 mV is monitored in the control buffer and after application of test article until a new steady state in the presence of the test article is achieved. To assess the rate dependent inhibition of the sodium currents, trains of voltage steps at frequencies of 1 and 4 Hz (30 sweeps each) are applied to the cell prior to application of test article (control) and after steady state inhibition by test article, as determined at 0.2 Hz frequency. The voltage waveform used in the rate dependence experiments is the same as the waveform used for evaluating steady state inhibition at 0.2 Hz stimulation frequency. Rate dependent inhibition is calculated by comparing the 30th voltage sweep in presence of test article to the 30th voltage sweep under control conditions at each frequency tested.
Compounds are tested in 3 cells at each concentration in each ion channel assay. Currents are sampled at rates at least 2 times the low pass filter rate. The flow rate is kept constant throughout the experiments. All currents were recorded at room temperature ˜25° C. IC50 values are calculated using the sigmoidal concentration-response equation Y=A+((B−A)/(1+((C/X)^D))) in XLfit where A and B are the minimum and maximum % inhibition, C is the IC50 and D is the slope factor.
Find below in Table 11 data for compared compounds (See WO 2011/127106 A1).

in vitro = details: human, microsomes, pH 7.4
Method: Metabolic Stability in Liver Microsomes Test
The test compound was received as a 3.5 mM stock solution in 100 percent dimethyl sulfoxide (“DMSO”, Sigma Aldritch). The compound solution was diluted to create a 50 μM acetonitrile (“ACN”, Sigma Aldritch) solution containing 1.4% DMSO, which is then used as a 100-fold stock for incubation with microsomes. The test compound, β-nicotinamide adenine dinucleotide phosphate (“NADPH”, AppliChem Inc.) and liver microsome solutions are combined for incubation in three steps:
1) 450 μl of liver microsome suspension, protein concentration of 1.1 mg/ml in 100 mM sodium (+)/phosphate (“NaPi”, pH 7.4, Sigma Aldritch) buffer, 5 mM magnesium chloride (“MgCl2, Sigma Aldritch) buffer, is pre-warmed at 37° C.;
2) 5 μl of 50 μM test compound (98.6% ACN, 1.4% DMSO) is added to the same tube and pre-incubated at 37° C. for 5 minutes; and
3) The reaction is initiated by the addition of 50 μl of pre-warmed 10 mM NADPH solution in 100 mM NaPi, pH 7.4.
Reaction components are mixed well and then 65 μl are immediately transferred into 130 μl quench/stop solution (zero-time point, T0). The reactions are incubated at 37° C. for 5, 10, 15, 30 and 45 minutes and at each time-point a 65 μl aliquot is transferred into 130 μl of quench solution. ACN containing Internal Standard (100 ng/ml), is used as the quench solution to terminate metabolic reactions. The quenched mixtures are centrifuged at 1500 rpm (˜500×g) in an Allegra X-12 centrifuge, SX4750 rotor (Beckman Coulter Inc., Fullerton, Calif.) for fifteen minutes to pellet denatured microsomes. A volume of 90 μl of supernatant extract, containing the mixture of parent compound and its metabolites, is then transferred to a separate 96-well plate for LC/MS-MS analysis to determine the percent of parent compound that is remaining in the mixture. Peak integration is performed on all samples using the Hepatic Clearance Calculator of QuickCalc by Gubbs, Inc. The percent remaining calculation is performed by comparing the LC-MS/MS peak areas from the samples at each time point to those from the T0 samples for each compound. T1/2 values are calculated from linear regression of the LN (% Remaining) over time, and the slope of that regression (Kel) is used to calculate T1/2, using the following equation: T1/2=−0.693/Kel.

Chain of sodium channel SCN5A (Q14524 whole entry): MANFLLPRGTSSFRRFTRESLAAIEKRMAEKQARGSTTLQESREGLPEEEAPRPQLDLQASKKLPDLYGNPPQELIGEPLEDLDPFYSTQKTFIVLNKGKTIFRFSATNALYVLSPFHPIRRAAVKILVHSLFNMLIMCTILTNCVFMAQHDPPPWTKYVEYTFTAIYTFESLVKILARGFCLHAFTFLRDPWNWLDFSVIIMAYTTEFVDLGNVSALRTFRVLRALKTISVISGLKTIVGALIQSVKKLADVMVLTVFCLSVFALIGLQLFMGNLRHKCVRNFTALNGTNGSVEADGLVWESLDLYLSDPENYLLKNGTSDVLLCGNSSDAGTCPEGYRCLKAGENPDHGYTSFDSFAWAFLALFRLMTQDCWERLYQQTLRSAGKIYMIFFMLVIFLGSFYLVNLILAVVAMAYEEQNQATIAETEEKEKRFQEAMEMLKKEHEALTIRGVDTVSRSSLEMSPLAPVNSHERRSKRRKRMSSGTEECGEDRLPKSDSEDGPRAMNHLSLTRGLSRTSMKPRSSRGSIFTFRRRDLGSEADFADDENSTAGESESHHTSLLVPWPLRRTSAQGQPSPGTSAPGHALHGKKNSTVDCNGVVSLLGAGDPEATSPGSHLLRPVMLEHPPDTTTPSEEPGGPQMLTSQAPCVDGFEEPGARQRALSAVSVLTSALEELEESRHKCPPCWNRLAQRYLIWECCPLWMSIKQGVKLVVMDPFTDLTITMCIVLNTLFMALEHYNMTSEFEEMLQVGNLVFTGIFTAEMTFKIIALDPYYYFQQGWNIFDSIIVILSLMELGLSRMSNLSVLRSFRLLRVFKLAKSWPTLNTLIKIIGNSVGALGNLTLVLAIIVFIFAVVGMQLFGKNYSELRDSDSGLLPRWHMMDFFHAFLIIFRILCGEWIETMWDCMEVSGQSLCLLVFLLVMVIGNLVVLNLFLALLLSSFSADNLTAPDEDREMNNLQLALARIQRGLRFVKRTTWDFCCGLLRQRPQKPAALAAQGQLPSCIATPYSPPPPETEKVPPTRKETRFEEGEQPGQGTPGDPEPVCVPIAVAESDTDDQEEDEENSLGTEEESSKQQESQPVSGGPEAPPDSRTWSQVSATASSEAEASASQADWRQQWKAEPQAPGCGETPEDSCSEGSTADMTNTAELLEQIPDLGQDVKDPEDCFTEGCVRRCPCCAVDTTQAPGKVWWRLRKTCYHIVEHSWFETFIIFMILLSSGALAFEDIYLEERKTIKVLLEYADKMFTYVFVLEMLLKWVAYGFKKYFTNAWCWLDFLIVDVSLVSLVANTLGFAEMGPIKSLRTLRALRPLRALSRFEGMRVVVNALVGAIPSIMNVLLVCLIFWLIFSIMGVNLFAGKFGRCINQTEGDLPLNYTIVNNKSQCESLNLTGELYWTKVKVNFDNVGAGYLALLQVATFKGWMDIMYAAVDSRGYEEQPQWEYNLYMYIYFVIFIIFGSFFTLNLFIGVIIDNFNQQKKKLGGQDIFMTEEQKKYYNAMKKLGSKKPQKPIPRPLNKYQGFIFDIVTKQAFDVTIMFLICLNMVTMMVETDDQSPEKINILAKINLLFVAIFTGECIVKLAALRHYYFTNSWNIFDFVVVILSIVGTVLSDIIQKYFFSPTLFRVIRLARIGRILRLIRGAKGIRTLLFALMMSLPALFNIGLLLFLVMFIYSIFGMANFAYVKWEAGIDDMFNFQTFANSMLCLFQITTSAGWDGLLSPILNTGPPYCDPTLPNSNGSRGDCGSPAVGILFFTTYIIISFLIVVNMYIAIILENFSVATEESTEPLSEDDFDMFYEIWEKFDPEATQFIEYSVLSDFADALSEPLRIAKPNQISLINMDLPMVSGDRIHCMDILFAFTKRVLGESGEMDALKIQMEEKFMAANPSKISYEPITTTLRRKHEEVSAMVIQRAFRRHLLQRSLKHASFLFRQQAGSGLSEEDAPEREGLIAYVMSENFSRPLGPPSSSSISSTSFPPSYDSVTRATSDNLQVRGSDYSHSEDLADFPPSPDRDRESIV

| bioavailability ([2]; 5 mg/kg as a microsuspension) | half-life at 0.5 µM (in vitro) | bioavailability ([2]; 2 mg/kg as a microsuspension) | SMILES | inhibition at 10 µM [1] | inhibition at 10 µM (sodium channel SCN5A; 1 Hz) | inhibition at 10 µM (sodium channel SCN5A; 4 Hz) | inhibition at 10 µM (sodium channel SCN5A; human, 1 Hz) | inhibition at 10 µM (sodium channel SCN5A; human, 4 Hz) |
| --- | --- | --- | --- | --- | --- | --- | --- | --- |
| 120% | 1.3 h |  | Cc1nc(-n2cc(Cl)c(OC3CCN(c4ncc(Cl)cn4)CC3)cc2=O)ccc1N1CC[C@H](O)C1=O [Example 3, (S)-5-chloro-4-((1-(5-chloropyrimidin-2-yl)piperidin-4-yl)oxy)-5′-(3-hydroxy-2-oxopyrrolidin-1-yl)-6′-methyl-2H-[1,2′-bipyridin]-2-one] | 9% | 14% | 23% |  |  |
|  | 1.62 h | 122% | Cc1nc(-n2cc(Cl)c(OC3CCN(c4ncc(Cl)cn4)CC3)cc2=O)ccc1N1CC[C@@H](O)C1=O [Example 4, (R)-5-chloro-4-((1-(5-chloropyrimidin-2-yl)piperidin-4-yl)oxy)-5′-(3-hydroxy-2-oxopyrrolidin-1-yl)-6′-methyl-2H-[1,2′-bipyridin]-2-one] | 7% | 6% | 7% | 6% | 7% |

Reference: patent US9174965B2, “Pyrimidinylpiperidinyloxypyridone analogues as GPR119 modulators” (BRISTOL-MYERS SQUIBB COMPANY, priority 2012, dated 2015)
